Results from patent US7847152B2, “Use of tryptophan indole and anthranilate analogs as plant transformation selection agents” (The Board of Trustees of the University of Illinois, priority 2006, dated 2010).
“Also recorded” adds a separate entry of the source.

Experiments:
[1] = system: tobacco shoot producing leaf discs; assay: Discrimination between wild type and ASA2 expressing tobacco shoot producing leaf discs; assay type: cell-based
Description: Various concentrations of the different analogs were tested on maize, soy bean, and tobacco that includes growth inhibition test of germination, leaf callus formation test, and other growth inhibition tests (FIGS. 15-38).
(§1) Leaf callus/shoot formation was studied on Tobacco Regeneration Medium that was MS basal medium with 88 μM 6-benzyladenine (BA) and 0.5 μM naphthalene acetic acid (NAA) and various concentrations of different Trp and indole analogs using a total of 30 leaf discs (6 mm each in diameter) from either the untransformed wild type (WT) tobacco or the ASA2 expressing transgenic line transformed with pAST-IV vector (line ASTIV) at 28° C. under fluorescent light as described above. Callus formation and shoot production was visually evaluated after 2, 4 and 6 weeks. Seedling growth inhibition was studied as described herein.

[2] = system: wild-type (WT) tobacco leaf discs; assay: Leaf callus/shoot formation inhibition, wild-type tobacco leaf discs; assay type: cell-based, Nicotiana tabacum; settings: for effectiveness as selection agent among the analogs tested: 9 Trp analogs and 7 indole analogs tested; for callus production of the wild-type / shoot formation of WT leaf discs: 300 μm analog
Description: (§2) Leaf callus formation was studied on the nutrient medium described herein using a total of 30 leaf discs at 28° C. under fluorescent light. After 2 weeks, callus formation was measured and after 4 weeks shoot production was recorded.
as §1

[3] = system: ASA2 expressing transgenic tobacco (line ASTIV); assay: Leaf callus formation and growth of ASA2 expressing (5MT resistant) tobacco plants; assay type: cell-based, Nicotiana tabacum; settings: 300 μm analog; for callus and shoot formation of ASA2 expressing leaf discs: after four/six weeks
Text: (§3) The concentrations listed in Table 1 are for illustrative purposes and should not be construed as a limited range. Seedling growth inhibition was studied by placing a total of 45 surface-sterilized seeds of either the wild-type (WT) tobacco (Nicotiana tabacum cv. Petit Havana SR1) or the ASA2 expressing transgenic plants previously obtained (Zhang et al., 2001), on Murashige-Skoog medium supplemented with 3% sucrose, vitamins, 0.8% agar and various concentrations of the different analogs (see Table 1). Seed germination and root formation were measured after 2 weeks, at 28° C. under fluorescent light. The analogs listed in Table 1 were obtained from Sigma-Aldrich (St. Louis, Mo.) or Acros Organics (Morris Plains, N.J.).
as §2, §1

[4] = system: wild-type (WT) tobacco seedlings; assay: Seedling growth inhibition test, wild-type tobacco; assay type: in vivo, Nicotiana tabacum; settings: for germination of WT and ASTIV seeds on analog containing medium / WT seedling growth: 75 μm analog; for WT seedling growth: after two weeks
Text: as §3
(§4) A vector pC2ASA2 was used, which contains a full length 2,144-bp AS feedback-insensitive α-subunit (ASA2) cDNA, encoding 616 amino acids including a putative transit peptide and 204 bp of 3′non-coding region driven by the CaMV35S promoter. pC2ASA2 was electroporated into Agrobacterium tumefaciens strain EHA105 and then used for the leaf disc transformation. Shoots of tobacco (Nicotiana tabacum L. cv. Xanthi) plants were maintained as in vitro stock cultures in Magenta boxes containing MS basal medium (Murashige and Skoog 1962) with 2 g 1-1 Gelrite® and leaves from these shoots were sources of explants for transformation. The growth conditions were 16-h photoperiod with a temperature of 28° C., florescent lamps providing a photosynthetic photon flux density of 150 μmol m-2 s-1 at the shelf surface. For segregation tests or for seedling growth inhibition tests on different analogs, 50 seeds/plate were surface sterilized with a solution of distilled water-Clorox (80:20; 1.25% Na hypochlorite) for 20 min containing a few drops of Tween 20™ and then rinsed with sterile water before spreading them on MS basal medium plates containing the appropriate selective agent.

[5] = system: ASA2 expressing transgenic tobacco seedlings; assay: Seedling growth inhibition test, ASA2 expressing transgenic tobacco; assay type: in vivo, Nicotiana tabacum; settings: 75 μm analog; for germination and growth of T2 seed of homozygous ASA2 lines: four lines, pC2ASA2 transformants; for transgenic seedling growth: line ASTIV
Text: as §3, with “Seed germination and root formation were measured after 2 weeks, at 28° C. under fluorescent light.” left out
as §4
To test for the segregation of the transgene in the T1 generation, seeds of the transgenic lines were germinated on medium containing either 75 4MI or 75 μm 7MT for 21 days. The ratios of resistant/sensitive seedlings were for most of the lines close to the expected 3:1 ratio confirming a single nuclear site of insertion for the 15 lines tested.

[6] = system: tobacco leaf discs transformed with CaMV35S-ASA2; assay: Selection of A. tumefaciens (pC2ASA2) transformed tobacco leaf discs on analog; assay type: cell-based, Nicotiana tabacum L. cv. Xanthi; settings: for resistant plants obtained (total of two experiments): 300 μm on TRM, 150 leaf discs for 4MI, 135 leaf discs for 7MT; for optimal concentration for selection of putative transformants: on TRM
Text: as §4
Leaf discs (6 mm each in diameter) from 20 leaves of WT tobacco were used for each transformation experiment. After 6 weeks of selection on TRM with either 300 μM 4MI or 300 μM 7MT and 500 mg/l timentin to eliminate A. tumefaciens, the shoots regenerating from the callus were isolated and transferred to the Rooting Medium with analogs to initiate root growth. After root induction, the plantlets were transferred into soil and grown to maturity in a greenhouse. The T1 seeds were plated on either 4MI or 7MT for segregation tests and to obtain homozygous lines.
The ASA2 gene driven by the CaMV 35S promoter was transferred into tobacco leaf discs via the A. tumefaciens-mediated transformation method. Putative transformants were selected on TRM using the optimal concentration (300 μm) of 4MI and 7MT for selection. 31 resistant plants were obtained in two different experiments: 21 one on 4MI from a total of 150 leaf discs (10 resistant plants from 80 leaf discs in experiment 1 and 11 resistant plants from 70 leaf discs in experiment 2) and 10 on 7MT from a total of 135 leaf discs (6 resistant plants from 70 leaf discs in experiment 1 and 4 resistant plants from 65 leaf discs in experiment 2). […] GUS activity was assessed histochemically in PCR-GUS positive lines using leaf pieces confirming the results obtained with the molecular screening. When the transgenic plants were tested for ASA2 gene expression by RT-PCR an 815-bp fragment was amplified from total RNA extracted from young leaves from 15 transgenic lines while no fragment was detected in the WT. […]

[7] = system: tobacco leaf discs bombarded with vector pAST-IV; assay: Selection of plastid transformants (pAST-IV) on analog; assay type: cell-based, Nicotiana tabacum cv. Havana; settings: 60 leaf discs bombarded, 6-8 weeks selection
Description: DNA preparation, precipitation onto gold particles, and bombardment were performed as described previously (Svab & Maliga P, 1993) using 0.6 μm gold particles (Bio-Rad, Hercules, Calif.) as micro projectiles. Any suitable particle bombardment procedure can be used. Briefly, the plasmid containing the marker gene and a gene of interest are coated onto gold or tungsten microparticles. The coated particles are air dried and loaded on to a particle gun for particle bombardment into the desired tissue. Nicotiana tabacum cv. Havana was used in the experiments. Green calli and shoots resistant to either 7-MT or 4-MI were obtained after 6-8 wks of selection on RMOP medium (Svab et al., 1990) and subjected to three additional rounds of selection for the homoplastomic condition.
Six to eight weeks after bombardment, 28 independent resistant shoots/calli were recovered from 60 leaf discs bombarded with vector pAST-IV. The 28 lines selected directly for 4MI or 7MT resistance were tested by the PCR reaction using either primers specific for ASA2 gene (L40 and L 39) or a primer specific to the ASA2 coding region (L40) and a primer that is located in the plastid genome outside the flanking region of the vector (L29). […] A 815 bp (L40-L39) and a 2.1 kb (L40-L29) fragments were reproducibly detected in 5 transgenic of the 28 in dependent lines (3 from 7MT and 2 from 4 MI). […]

[8] = system: Arabidopsis germinating seedlings; assay: Discrimination between wild type and ASA2 expressing Arabidopsis germinating seedlings; assay type: in vivo; settings: Arabidopsis seeds

Cc1cccc(N)c1C(=O)O [6MA, 6-methylanthranilate]
concentration for discriminating between wild type and ASA2 expressing tobacco shoot producing leaf discs [1]: 6MA 70 μM

Cc1cccc2[nH]ccc12 [4MI, 4-Methylindole]
effectiveness as selection agent among the analogs tested [2]: most effective
effectiveness as selection agent among the analogs tested ([2]; listed as 4-MI): enhanced selection properties
callus production of the wild-type [2]: greater inhibition; also recorded: inhibited
shoot formation of WT leaf discs [2]: little shoot formation
growth of the ASA2 expressing (5-MT resistant) plants [3]: not affected
callus and shoot formation of ASA2 expressing leaf discs [3]: formed callus and produced shoots
germination of WT and ASTIV seeds on analog containing medium [4]: germinate almost equally
WT seedling growth [4]: started to bleach, ceased to grow and eventually died
growth of the wild-type seedlings/roots ([4]; 300 μm analog): completely inhibited
wild-type plant germination ([4]; 300 μm analog): inhibited
germination and growth of T2 seed of homozygous ASA2 lines [5]: all 100 seeds germinated and grew normally
transgenic seedling growth [5]: grew well
transgenic seedling development after six weeks [5]: growing with normal true leaf development
concentration for discriminating between wild type and ASA2 expressing tobacco shoot producing leaf discs [1]: 4MI 300 μM
resistant plants obtained (total of two experiments) [6]: 21
optimal concentration for selection of putative transformants [6]: 300 μm
PCR-confirmed transgenic lines among 28 independent resistant lines [7]: 2

Fc1ccc2[nH]ccc2c1 [5FI, 5-Fluoroindole]
concentration for discriminating between wild type and ASA2 expressing Arabidopsis germinating seedlings [8]: 5FI 20 μM

Cc1ccc2[nH]cc(C[C@H](N)C(=O)O)c2c1 [5MT, 5-methyltrypthophan]
concentration for discriminating between wild type and ASA2 expressing Arabidopsis germinating seedlings [8]: 5MT 200 μM

Fc1cccc2[nH]ccc12 [4FI, 4-Fluoroindole]
concentration for discriminating between wild type and ASA2 expressing Arabidopsis germinating seedlings [8]: 4FI 70 μM

Cc1cccc2[nH]cc(C[C@H](N)C(=O)O)c12 [4MT, 4-methyltrypthophan]
concentration for discriminating between wild type and ASA2 expressing Arabidopsis germinating seedlings [8]: 4MT 70 μM

Cc1cccc2c(CC(N)C(=O)O)c[nH]c12 (racemic) [7MT, 7-methyl-DL-tryptophan]
effectiveness as selection agent among the analogs tested [2]: most effective
effectiveness as selection agent among the analogs tested ([2]; listed as 7-MT): enhanced selection properties
callus production of the wild-type [2]: greater inhibition; also recorded: inhibited
shoot formation of WT leaf discs [2]: little shoot formation
growth of the ASA2 expressing (5-MT resistant) plants [3]: not affected
callus and shoot formation of ASA2 expressing leaf discs [3]: formed callus and produced shoots
germination of WT and ASTIV seeds on analog containing medium [4]: germinate almost equally
WT seedling growth [4]: started to bleach, ceased to grow and eventually died
growth of the wild-type seedlings/roots ([4]; 300 μm analog): completely inhibited
germination and growth of T2 seed of homozygous ASA2 lines [5]: all 100 seeds germinated and grew normally
transgenic seedling growth [5]: grew well
transgenic seedling development after six weeks [5]: growing with normal true leaf development
concentration for discriminating between wild type and ASA2 expressing Arabidopsis germinating seedlings [8]: 7MT 300 μM
concentration for discriminating between wild type and ASA2 expressing tobacco shoot producing leaf discs [1]: 7MT 400 μM
resistant plants obtained (total of two experiments) [6]: 10
optimal concentration for selection of putative transformants [6]: 300 μm
PCR-confirmed transgenic lines among 28 independent resistant lines [7]: 3

COc1cccc2cc[nH]c12 [7MI, 7-Methoxyindole]
concentration for discriminating between wild type and ASA2 expressing tobacco shoot producing leaf discs [1]: 7MI 1000 μM

C[C@](N)(Cc1c[nH]c2ccccc12)C(=O)O [α-MT, α- methyltrypthophan]
concentration for discriminating between wild type and ASA2 expressing Arabidopsis germinating seedlings [8]: α-MT 20 μM

N[C@@H](Cc1c[nH]c2ccc(O)cc12)C(=O)O [5HT, 5-hydroxyl-L-tryptophan]
concentration for discriminating between wild type and ASA2 expressing Arabidopsis germinating seedlings [8]: 5HT 200 μM

Nc1ccc(F)cc1C(=O)O [5FA]
concentration for discriminating between wild type and ASA2 expressing tobacco shoot producing leaf discs [1]: 5FA 150 μM

CC(=O)c1c[nH]c2ccccc12 [3-acetylI]
concentration for discriminating between wild type and ASA2 expressing tobacco shoot producing leaf discs [1]: 3-acetylI 500 μM

Cc1ccc(N)c(C(=O)O)c1 [5MA, 5-methylanthranilate]
concentration for discriminating between wild type and ASA2 expressing tobacco shoot producing leaf discs [1]: 5MA 800 μM

COc1ccc2[nH]ccc2c1 [5MI, 5-Methoxyindole]
concentration for discriminating between wild type and ASA2 expressing tobacco shoot producing leaf discs [1]: 5MI 1000 μM
